Experiments:
Ba/F3 HER2 A775insYVMA = experiment: Growth inhibition of Ba/F3 cells engineered to overexpress HER2 A775_G776insYVMA (CellTiter-Glo luminescence); assay type: cell-based; conditions: Mus musculus, BaF3, 72 hours, concentrations 1000 to 0.32 nM, read-out: Ba/F3 HER2^YVMA GI50 class
Protocol: (§1) Experimental Example: Growth inhibition of Ba/F3 HER2 A775insYVMA and wild-type Ba/F3 cells
(§2) In this Experimental Example, the compounds obtained in Examples 1 to 92 were evaluated for their ability to inhibit growth of cells harboring either the HER2 A775insYVMA mutation or wild-type EGFR. For this purpose, Ba/F3 cells (ATCC, USA) were genetically engineered to overexpress either HER2 A775_G776insYVMA or wild-type EGFR, and the growth of these engineered Ba/F3 cells were monitored in the presence of the compounds described in the Examples to evaluate their effects on growth inhibition.
(§3) Specifically, culture flasks of the engineered Ba/F3 cells suspended in RPMI 1640 medium supplemented with 10% fetal bovine serum (FBS) and 1% penicillin/streptomycin (Gibco BRL, USA) were placed in a cell incubator and incubated at 37°C and 5% CO2 level to allow them to reach a stable logarithmic growth phase. The cells were then harvested by centrifugation to remove the old media and placed into a 96-well plate by dividing them into 100 µL aliquots per well at a dilution of 1×10^5 cells/mL in fresh media. Each of the compounds prepared in the preceding Examples were dissolved in 99.5% (cell culture grade) dimethylsulfoxide (DMSO) to prepare a stock solution of 10 mM concentration, which were serially diluted in the culture medium to final concentrations of 1000, 200, 40, 8, 1.6 and 0.32 nM for HER2 A775insYVMA Ba/F3 cells and concentrations of 10000, 5000, 1000, 200, 40 and 8 nM for wild-type EGFR overexpressing Ba/F3 cells.
(§4) To each aliquot of cells in the 96-well plate, a 50 µL test solution comprising one of the compounds was added to result in each well a 150 µL volume of cells with a compound in a final concentration ranging from 10 µM to 0.32 nM. The Ba/F3 cells treated with the test solution were incubated for 72 hours at 37°C and 5% CO2 level and underwent a 30-minute acclimation by placing the 96-well plate carrying the cells in ambient temperature. Thereafter, to each well was added 50 µL CellTiter-Glo® Luminescent Cell Assay Reagent (CTG, Promega, USA). After allowing 10 minutes to stabilize the signal, luminescence intensity was measured using a microplate reader. The half-maximal growth inhibition concentration (GI50) was calculated from the luminescence readout of the test compounds with the difference between the initial and final cell densities for the well untreated with a compound set at 100% growth. Nonlinear regression analysis based on log[inhibitor] vs. normalized response mode of the Graph Prism software was used for calculating GI50 for each compound, which are summarized in Table 6. The calculated GI50 values are classified in Table 6 into four categories: A for GI50 values less than 100 nM, B for GI50 values more than 100 nM but less than 1,000 nM, C for GI50 values more than 1,000 nM but less than 5,000 nM, and D for GI50 values of more than 5,000 nM.

[1] = test system: wild-type EGFR overexpressing Ba/F3 cells; experiment: Growth inhibition of Ba/F3 cells engineered to overexpress wild-type EGFR (CellTiter-Glo luminescence); assay type: cell-based; conditions: Mus musculus, BaF3, 72 hours, concentrations 10000 to 8 nM, read-out: Ba/F3 EGFR^WT GI50 class
Protocol: as §1, §2, §3, §4

Compound	GI50 (Ba/F3 HER2 A775insYVMA) [µM]	GI50 [1] [µM]
C=CC(=O)NC/C=C/c1ccc2ncnc(Nc3ccc(Oc4ccc5c(c4)ncn5C)c(C)c3Cl)c2n1 [Example 36, (E)-N-(3-(4-((2-chloro-3-methyl-4-((1-methyl-1H-benzo[d]imidazol-5-yl)oxy)phenyl)amino)pyrido[3,2-d]pyrimidin-6-yl)allyl)acrylamide]	< 0.1	> 5
C=CC(=O)N1CCC[C@@H]1C#Cc1ccc2ncnc(Nc3ccc(Oc4ccn5ncnc5c4)c(C)c3)c2c1 [Example 74, (R)-1-(2-((4-((4-([1,2,4]triazolo[1,5-a]pyridin-7-yloxy)-3-methylphenyl)amino)quinazolin-6-yl)ethynyl)pyrrolidin-1-yl)prop-2-en-1-one]	< 0.1	< 0.1
C=CC(=O)N1CCC[C@@H]1C#Cc1ncc2ncnc(Nc3ccc(OC4=CC5N=CN(C)C5C=C4)c(C)c3)c2n1 (stereo partly drawn) [Example 90, 1-((2R)-2-((8-((3-methyl-4-((1-methyl-3a,7a-dihydro-1H-benzo[d]imidazol-5-yl)oxy)phenyl)amino)pyrimido[5,4-d]pyrimidin-2-yl)ethynyl)pyrrolidin-1-yl)prop-2-en-1-one]	< 0.1	< 0.1
C=CC(=O)N(C/C=C/c1ccc2ncnc(Nc3ccc(Oc4ccc5c(c4)ncn5C)c(C)c3)c2n1)C(C)(C)C [Example 53, (E)-N-(tert-butyl)-N-(3-(4-((3-methyl-4-((1-methyl-1H-benzo[d]imidazol-5-yl)oxy)phenyl)amino)pyrido[3,2-d]pyrimidin-6-yl)allyl)acrylamide]	< 0.1	1 to 5

The next lines start with the values.

GI50 (Ba/F3 HER2 A775insYVMA) [µM]	GI50 [1] [µM]	Compound
< 0.1	1 to 5	C=CC(=O)N(C)[C@H](C)/C=C/c1ccc2ncnc(Nc3ccc(Oc4ccc5c(c4)ncn5C)c(C)c3)c2n1 [Example 52, (R,E)-N-methyl-N-(4-(4-((3-methyl-4-((1-methyl-1H-benzo[d]imidazol-5-yl)oxy)phenyl)amino)pyrido[3,2-d]pyrimidin-6-yl)but-3-en-2-yl)acrylamide]
< 0.1	0.1 to 1	C=CC(=O)N1CCC[C@H]1C#Cc1ccc2ncnc(Nc3ccc(Oc4ccn5ncnc5c4)c(C)c3)c2n1 [Example 81, (S)-1-(2-((4-((4-([1,2,4]triazolo[1,5-a]pyridin-7-yloxy)-3-methylphenyl)amino)pyrido[3,2-d]pyrimidin-6-yl)ethynyl)pyrrolidin-1-yl)prop-2-en-1-one]
< 0.1	0.1 to 1	C=CC(=O)NC/C=C/c1ccc2ncnc(Nc3ccc(Oc4ccn5ncnc5c4)c(C)c3)c2n1 [Example 38, (E)-N-(3-(4-((4-([1,2,4]triazolo[1,5-a]pyridin-7-yloxy)-3-methylphenyl)amino)pyrido[3,2-d]pyrimidin-6-yl)allyl)acrylamide]
< 0.1	0.1 to 1	C=CC(=O)N(C)CCOc1ccc2ncnc(Nc3ccc(Oc4ccn5ncnc5c4)c(C)c3)c2c1 [Example 1, N-(2-((4-((4-([1,2,4]triazolo[1,5-a]pyridin-7-yloxy)-3-methylphenyl)amino)quinazolin-6-yl)oxy)ethyl)-N-methylacrylamide]
0.1 to 1	1 to 5	C=CC(=O)N(C)CC(=O)Nc1ccc2ncnc(Nc3ccc(Oc4ccc5c(c4)ncn5C)c(C)c3)c2n1 [Example 21, N-methyl-N-(2-((4-((3-methyl-4-((1-methyl-1H-benzo[d]imidazol-5-yl)oxy)phenyl)amino)pyrido[3,2-d]pyrimidin-6-yl)amino)-2-oxoethyl)acrylamide]
< 0.1	> 5	Cc1cc(Nc2ncnc3ccc(/C=C/CNC(=O)/C=C/CN4CCOCC4)nc23)ccc1Oc1ccc2c(c1)ncn2C [Example 60, (E)-N-((E)-3-(4-((3-methyl-4-((1-methyl-1H-benzo[d]imidazol-5-yl)oxy)phenyl)amino)pyrido[3,2-d]pyrimidin-6-yl)allyl)-4-morpholinobut-2-enamide]

From patent EP4782450A1, “NOVEL SKELETAL DERIVATIVE EFFECTIVE FOR HER2 MUTATION, AND PHARMACEUTICAL COMPOSITION COMPRISING SAME” (Hanmi Pharm. Co., Ltd., priority 2023, dated 2025)
